Patent publication US6211215A, “Heterocyclic compounds, their production and use” (Takeda Chemical Industries, Ltd., priority 1996, dated 2001)

Legend:
SKBR3 = experiment: Selective in vitro inhibition of breast cancer cell growth; format: cell-based; conditions: Homo sapiens, SK-BR-3, 72 h; Mammary cancer SKBR3; 3 days; SRB; read-out: IC50, inhibition of cell proliferation
Protocol: (§1) 100 μl (containing 2,000 cells) of a cell suspension of various human breast cancer cell lines shown in [Table 6] was seeded in each well of the 96-well microtiter plates. The cells were incubated at 37° C. in a 5% carbon dioxide gas incubator. Next day, 100 μl of a 2 fold serial dilution of a compound solution was added to each well. The cultures were incubated for 3 days. The solution containing the compound was removed and the cells were washed with water. To the cells was added a 0.4% (V/W) dye SRB (dissolved in 1% acetic acid) solution to fix and stain the cell protein. The dye solution was removed and the fixed and stained cell protein was washed. The protein-bound dye was extracted with 200 μl of 10 mM Tris buffer. The optical density of the extracted dye was determined at the wavelength of 540 nm to estimate the quantity of the cells in terms of the protein quantity. Designating the protein quantity in the control to which no compound solution was added as 100%, the proportion of the residual protein quantity in each treated group was calculated, and IC50, which was the concentration of the compound required to inhibit the residual protein quantity to 50% the quantity of the control, was calculated.

WiDr = experiment: as above; format: cell-based; conditions: Homo sapiens, 72 h; Large intestinal cancer WiDr; 3 days; SRB; read-out: IC50, inhibition of cell proliferation
Protocol: as §1

BT-474 = experiment: as above; format: cell-based; conditions: Homo sapiens, 72 h; Mammary cancer BT-474; 3 days; SRB; read-out: IC50, inhibition of cell proliferation
Protocol: as §1

ASPC-1 = experiment: as above; format: cell-based; conditions: Homo sapiens, ASPC1, 72 h; Pancreatic cancer ASPC-1; 3 days; SRB; read-out: IC50, inhibition of cell proliferation
Protocol: as §1

MDA-MB-468 = experiment: as above; format: cell-based; conditions: Homo sapiens, 72 h; Mammary cancer MDA-MB-468; 3 days; SRB; read-out: IC50, inhibition of cell proliferation
Protocol: as §1

T-47D = experiment: as above; format: cell-based; conditions: Homo sapiens, T47D, 72 h; Mammary cancer T-47D; 3 days; SRB; read-out: IC50, inhibition of cell proliferation
Protocol: as §1

[1] = tested on: human breast cancer cell line, MDA-MB-453; experiment: In vivo mammary cancer inhibiting effect (1); parameters: species or system female Balb/C strain athymic nude mice; conditions: for Tumor growth rate (%): oral, tumor volume vs control
Protocol: 5,000,000 cells of human breast cancer cell line, MDA-MB-453, were suspended in a gelmatrix solution. The suspension was subcutaneously implanted at the breast in 7-week-old female Balb/C strain athymic nude mice (Friedman R. et al., Proceedings of the National Academy of Sciences of the U.S.A. Vol. 87, pp.6698-6702, 1990). Twelve days after the implantation, the diameters of tumors were determined. For the experiment were used 5 mice per group with similar tumor size. Compound 8 of the present invention was suspended in a 5% gum arabic solution (physiologicalsaline) and administered orally twice daily in dose of 30 mg/kg body weight for 10 days, or 2 cycle oral administrations consisting of 45 mg/kg body weight twice daily for 3 days and no treatment for 3 days were performed. On the day when the dosing was ended, the diameters of tumors were measured. Tumor volume was calculated by the following formula: volume of tumor=longest diameter×shortest diameter×shortest diameter×1/2. The growth rate of tumors was obtained as the proportion to the volume of tumor in the control animals in which only the gum arabic solution was administered. The body weights of mice administered with Compound 8 of the present invention were measured during the experiment to observe no decrease.

In the case of C(=C\c1nc(COc2ccc(CCCn3ccnc3)cc2)co1)/c1ccccc1 [Compound 8, 4-[4-[3-(1-imidazolyl)propyl]phenoxymethyl]-2-[(E)-2-phenylethenyl]oxazole], the IC50 (SKBR3) is reported as 1 µM, the IC50 (WiDr) is reported as 2.1 µM and the IC50 (BT-474) is reported as 0.29 µM. For the same compound, the IC50 (ASPC-1) was 2.5 µM, the IC50 (MDA-MB-468) was 0.52 µM and the IC50 (T-47D) was 0.57 µM. The “Tumor growth rate (%)” value ([1]; 60 mg/kg/day, 30 mg/kg twice daily for 10 days) was 71%, the “Tumor growth rate (%)” value ([1]; 90 mg/kg/day, 2 cycles of 45 mg/kg twice daily 3 days and 3 days off) was 46% and the “Inhibition of implanted tumor growth” value ([1]; MDA-MB-453, athymic nude mice) was “inhibited dose-dependently the growth of human breast cancer”.
